We go through 65 sequences from the supplement of paper PMC11208160.
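Further: IS621 bridge recombinase in Escherichia coli cells against a fixed T5 target plasmid.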

The nature of the data set: recombinant UMI read abundance after kanamycin selection (control-corrected) (log10(CPM+1)); higher = more efficient recombination; extreme values may be limits of the assay; sequences stand for … in AGTGCAGAGAAAATCGGCCAGTTTTCTCTGCCTGCAGTCCGCATGCCGTGGGACCCCTTGGGTTCTAACCTGTTGCCTAGATTTATGCAGCGGACTGCCTTTCTCCCAAAGTGATAAACCGG…AGGTTGGTTTCACT; site = the 11-nt donor. The method, then: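 Pooled E. coli donor-specificity screen for the IS621 bridge recombinase. Each library member carries a reprogrammed 11-nt donor and a full-length LE bridge RNA expressed in cis from the natural promoter, with a paired donor-binding loop (8-nt LDG + 4-nt RDG) and a target-binding loop fixed to T5. It is co-electroporated with a T5 target plasmid; recombinase is induced with 0.07 mM IPTG and recombinants are selected on kanamycin. UMIs are counted as CPM, averaged over two biological replicates and corrected by the unselected control. Molecule = full bridge RNA written as DNA, built from the T5 scaffold: LDG = donor specificity nt 1-8, RDG = reverse complement of nt 8-11.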
Consider “AAAACTGCATGGACCGGTTTTCCCGGTAATCCGTATTTGAA (site AAAACTGCTTT)”, for which the “recombinant UMI read abundance (log10)” value stood at 0.637.
In the case of “AAAAGATCATGGACCGGTTTTCCCGGTAATCCGTATTTGGA (site AAAAGATCTTC)”, the “recombinant UMI read abundance (log10)” value was 1.94.
As to “AAAAGATCATGGACCGGTTTTCCCGGTAATCCGTATTTGGC (site AAAAGATCTGC)”, the “recombinant UMI read abundance (log10)” value worked out at 2.65.
In the case of “AAACACGCATGGACCGGTTTTCCCGGTAATCCGTATTTGGG (site AAACACGCTCC)”, the “recombinant UMI read abundance (log10)” value stood at 0.227.
“AAACACGCATGGACCGGTTTTCCCGGTAATCCGTATTTGGG (site AACCACGCTCC)”: the “recombinant UMI read abundance (log10)” value was determined as 0.0138.
Then “AAACACGCATGGACCGGTTTTCCCGGTAATCCGTATTTGGG (site AAGCACGCTCC)”, with 0.0101.
As for “AAACACGCATGGACCGGTTTTCCCGGTAATCCGTATTTGGG (site AATCACGCTCC)”, the “recombinant UMI read abundance (log10)” value turned out to be 0.0344.
“AAACAGACATGGACCGGTTTTCCCGGTAATCCGTATTTGGA (site AAACAGACTTC)”: the “recombinant UMI read abundance (log10)” value was determined as 0.991.
For “AAACGAACATGGACCGGTTTTCCCGGTAATCCGTATTTGTC (site AAACGAACTGA)” the value was 1.58; for “AAACGAACATGGACCGGTTTTCCCGGTAATCCGTATTTGTC (site ACACGAACTGA)”, 0.524.
As for “AAACGAACATGGACCGGTTTTCCCGGTAATCCGTATTTGTC (site AGACGAACTGA)”, the “recombinant UMI read abundance (log10)” value came out at 0.
For “AAACGAACATGGACCGGTTTTCCCGGTAATCCGTATTTGTC (site ATACGAACTGA)” the value was 0.767.
For the sequence “AAACGAGCATGGACCGGTTTTCCCGGTAATCCGTATTTGAG (site AAACGAGCTCT)”, the “recombinant UMI read abundance (log10)” value is 1.78.
Regarding “AAACGTCCATGGACCGGTTTTCCCGGTAATCCGTATTTGAT (site AAACGTCCTAT)”, the “recombinant UMI read abundance (log10)” value came to 0.701.
For “AAACGTCCATGGACCGGTTTTCCCGGTAATCCGTATTTGAT (site AACCGTCCTAT)”, the “recombinant UMI read abundance (log10)” value is 0.00727.
For “AAACGTCCATGGACCGGTTTTCCCGGTAATCCGTATTTGAT (site AAGCGTCCTAT)”, the “recombinant UMI read abundance (log10)” value turned out to be 0.266.
As for “AAACGTCCATGGACCGGTTTTCCCGGTAATCCGTATTTGAT (site AATCGTCCTAT)”, the “recombinant UMI read abundance (log10)” value was found to be 0.0129.
For “AAAGACCCATGGACCGGTTTTCCCGGTAATCCGTATTTGGT (site AAAGACCCTAC)”, the “recombinant UMI read abundance (log10)” value was 1.02.
Turning to “AAAGCGCCATGGACCGGTTTTCCCGGTAATCCGTATTTGTG (site AAAGCGCCTCA)”, the “recombinant UMI read abundance (log10)” value was 0.207.
Turning to “AAAGCGCCATGGACCGGTTTTCCCGGTAATCCGTATTTGTG (site CAAGCGCCTCA)”, the “recombinant UMI read abundance (log10)” value was 0.017.
With “AAAGCGCCATGGACCGGTTTTCCCGGTAATCCGTATTTGTG (site GAAGCGCCTCA)”, the “recombinant UMI read abundance (log10)” value was 0.0199.
For “AAAGCGCCATGGACCGGTTTTCCCGGTAATCCGTATTTGTG (site TAAGCGCCTCA)” the value was 0.019.
As to “AAAGGCTCATGGACCGGTTTTCCCGGTAATCCGTATTTGCG (site AAAGGCTCTCG)”, the “recombinant UMI read abundance (log10)” value was 2.61.
On to “AAAGTAACATGGACCGGTTTTCCCGGTAATCCGTATTTGCT (site AAAGTAACTAG)”, for which the “recombinant UMI read abundance (log10)” value was 2.89.
“AAAGTAACATGGACCGGTTTTCCCGGTAATCCGTATTTGCT (site AACGTAACTAG)”: the “recombinant UMI read abundance (log10)” value was found to be 2.06.
As to “AAAGTAACATGGACCGGTTTTCCCGGTAATCCGTATTTGCT (site AAGGTAACTAG)”, the “recombinant UMI read abundance (log10)” value is 1.66.
On to “AAAGTAACATGGACCGGTTTTCCCGGTAATCCGTATTTGCT (site AATGTAACTAG)”, for which the “recombinant UMI read abundance (log10)” value worked out at 2.1.
As for “AAAGTATCATGGACCGGTTTTCCCGGTAATCCGTATTTGCA (site AAAGTATCTTG)”, the “recombinant UMI read abundance (log10)” value came to 2.86.
On to “AAAGTATCATGGACCGGTTTTCCCGGTAATCCGTATTTGCA (site ACAGTATCTTG)”, for which the “recombinant UMI read abundance (log10)” value amounted to 2.64.
For “AAAGTATCATGGACCGGTTTTCCCGGTAATCCGTATTTGCA (site AGAGTATCTTG)”, the “recombinant UMI read abundance (log10)” value came to 2.83.
With “AAAGTATCATGGACCGGTTTTCCCGGTAATCCGTATTTGCA (site ATAGTATCTTG)”, the “recombinant UMI read abundance (log10)” value worked out at 2.62.
In the case of “AAAGTATCATGGACCGGTTTTCCCGGTAATCCGTATTTGCT (site AAAGTATCTAG)”, the “recombinant UMI read abundance (log10)” value is 2.73.
For “AAAGTATCATGGACCGGTTTTCCCGGTAATCCGTATTTGCT (site ACAGTATCTTG)” the value was 0.
On to “AAAGTGTCATGGACCGGTTTTCCCGGTAATCCGTATTTGAC (site AAAGTGTCTGT)”, for which the “recombinant UMI read abundance (log10)” value amounted to 2.37.
Then “AAAGTGTCATGGACCGGTTTTCCCGGTAATCCGTATTTGAC (site AACGTGTCTGT)”, with 0; and “AAAGTGTCATGGACCGGTTTTCCCGGTAATCCGTATTTGAC (site AAGGTGTCTGT)”, with 0.
Regarding “AAAGTGTCATGGACCGGTTTTCCCGGTAATCCGTATTTGAC (site AATGTGTCTGT)”, the “recombinant UMI read abundance (log10)” value is 0.497.
Then “AAAGTTGCATGGACCGGTTTTCCCGGTAATCCGTATTTGAT (site AAAGTTGCTAT)”, with 2.62.
“AAATCTACATGGACCGGTTTTCCCGGTAATCCGTATTTGTG (site AAATCTACTCA)”: the “recombinant UMI read abundance (log10)” value was found to be 0.209.
On to “AAATCTACATGGACCGGTTTTCCCGGTAATCCGTATTTGTG (site ACATCTACTCA)”, for which the “recombinant UMI read abundance (log10)” value was found to be 0.0169.
On to “AAATCTACATGGACCGGTTTTCCCGGTAATCCGTATTTGTG (site AGATCTACTCA)”, for which the “recombinant UMI read abundance (log10)” value turned out to be 0.0155.
Then “AAATCTACATGGACCGGTTTTCCCGGTAATCCGTATTTGTG (site ATATCTACTCA)”, with 0.0108; and “AACAAGACATGGACCGGTTTTCCCGGTAATCCGTATTTGAC (site AACAAGACTGT)”, with 2.21.
As to “AACAGTCCATGGACCGGTTTTCCCGGTAATCCGTATTTGAT (site AACAGTCCTAT)”, the “recombinant UMI read abundance (log10)” value is 0.504.
Regarding “AACAGTCCATGGACCGGTTTTCCCGGTAATCCGTATTTGAT (site AACCGTCCTAT)”, the “recombinant UMI read abundance (log10)” value was determined as 0.00935.
For the sequence “AACAGTCCATGGACCGGTTTTCCCGGTAATCCGTATTTGAT (site AACGGTCCTAT)”, the “recombinant UMI read abundance (log10)” value stood at 0.0119.
For “AACAGTCCATGGACCGGTTTTCCCGGTAATCCGTATTTGAT (site AACTGTCCTAT)”, the “recombinant UMI read abundance (log10)” value was determined as 0.
Consider “AACCAAACATGGACCGGTTTTCCCGGTAATCCGTATTTGAG (site AACCAAACTCT)”, for which the “recombinant UMI read abundance (log10)” value was determined as 1.48.
On to “AACCAAGCATGGACCGGTTTTCCCGGTAATCCGTATTTGAG (site AACCAAGCTCT)”, for which the “recombinant UMI read abundance (log10)” value stood at 1.8.
As for “AACCAAGCATGGACCGGTTTTCCCGGTAATCCGTATTTGAG (site ACCCAAGCTCT)”, the “recombinant UMI read abundance (log10)” value was 0.33.
For the sequence “AACCAAGCATGGACCGGTTTTCCCGGTAATCCGTATTTGAG (site AGCCAAGCTCT)”, the “recombinant UMI read abundance (log10)” value worked out at 0.217.
Turning to “AACCAAGCATGGACCGGTTTTCCCGGTAATCCGTATTTGAG (site ATCCAAGCTCT)”, the “recombinant UMI read abundance (log10)” value came to 0.642.
Take “AACCACGCATGGACCGGTTTTCCCGGTAATCCGTATTTGGG (site AAACACGCTCC)”: the “recombinant UMI read abundance (log10)” value stood at 0.0131.
For “AACCACGCATGGACCGGTTTTCCCGGTAATCCGTATTTGGG (site AACCACGCTCC)”, the “recombinant UMI read abundance (log10)” value was 0.0319.
Regarding “AACCACGCATGGACCGGTTTTCCCGGTAATCCGTATTTGGG (site AAGCACGCTCC)”, the “recombinant UMI read abundance (log10)” value worked out at 0.
“AACCACGCATGGACCGGTTTTCCCGGTAATCCGTATTTGGG (site AATCACGCTCC)”: the “recombinant UMI read abundance (log10)” value turned out to be 0.00485.
For “AACCGTACATGGACCGGTTTTCCCGGTAATCCGTATTTGAT (site AACCGTACTAT)” the value was 1; for “AACCGTACATGGACCGGTTTTCCCGGTAATCCGTATTTGAT (site AACCGTCCTAT)”, 0.0158.
Regarding “AACCGTACATGGACCGGTTTTCCCGGTAATCCGTATTTGAT (site AACCGTGCTAT)”, the “recombinant UMI read abundance (log10)” value was determined as 0.108.
With “AACCGTACATGGACCGGTTTTCCCGGTAATCCGTATTTGAT (site AACCGTTCTAT)”, the “recombinant UMI read abundance (log10)” value is 0.
“AACCGTCCATGGACCGGTTTTCCCGGTAATCCGTATTTGAC (site AACCGTCCTAT)”: the “recombinant UMI read abundance (log10)” value came out at 0.
For the sequence “AACCGTCCATGGACCGGTTTTCCCGGTAATCCGTATTTGAC (site AACCGTCCTCT)”, the “recombinant UMI read abundance (log10)” value was found to be 0.0147.
Then “AACCGTCCATGGACCGGTTTTCCCGGTAATCCGTATTTGAC (site AACCGTCCTGT)”, with 0.786; and “AACCGTCCATGGACCGGTTTTCCCGGTAATCCGTATTTGAC (site AACCGTCCTTT)”, with 0.477.
Then “AACCGTCCATGGACCGGTTTTCCCGGTAATCCGTATTTGAG (site AACCGTCCTAT)”, with 0.0112.
